The numbers were not newly measured in PubChem BioAssay AID1259409 (Chemical Carcinogenesis Research Information System (CCRIS), 2018), which cites them from elsewhere.

The data set deals with rodent chemically induced tumor inhibition, incidence and multiplicity. As to the kind of experiment: CCRIS tumor inhibitor studies.

For the compound `Oc1ccccc1O`, the “tumour outcome (control, treated, inhibition, significance)” value reads like this: (Carcinogen: 3,2'-DIMETHYL-4-AMINOBIPHENYL, 13394-86-0, Dose [Inhibitor]: 0, 0.8% IN BASAL DIET BEGINNING POST CARCINOGEN TREATMENT AND CONTINUING FOR 40 (STUDY DURATION: 60 WK), Route [Inhibitor]: ORAL, Species: RAT, Strain/Sex: F344/MALE, Target Tissue: Type of Lesion: SUBCUTIS: TUMOR, Dose [Carcinogen]: 50 MG/KG 1/2 WK FOR 20 WK TO RATS MAINTAINED ON ETHINYL ESTRADIOL CONTAINING DIET (0.75 PPM) FOR 1 WK CYCLED WITH ETHINY, Promoter: ETHINYL ESTRADIOL, 57-63-6) 1/10 (10%), 1/11 (9%), 10%, not significant; (Carcinogen: 3,2'-DIMETHYL-4-AMINOBIPHENYL, 13394-86-0, Dose [Inhibitor]: 0, 0.8% IN BASAL DIET BEGINNING POST CARCINOGEN TREATMENT AND CONTINUING FOR 40 WK (STUDY DURATION: 60 WK), Route [Inhibitor]: ORAL, Species: RAT, Strain/Sex: F344/MALE, Target Tissue: Type of Lesion: LARGE INTESTINE: ADENOMA AND ADENOCARCINOMA, Dose [Carcinogen]: 50 MG/KG 1/2 WK FOR 20 WK TO RATS MAINTAINED ON ETHINYL ESTRADIOL CONTAINING DIET (0.75 PPM) FOR 1 WK CYCLED WITH ETHINY, Promoter: ETHINYL ESTRADIOL, 57-63-6) 3/10 (30%), 5/11 (45%), -50%, not significant; (Carcinogen: 3,2'-DIMETHYL-4-AMINOBIPHENYL, 13394-86-0, Dose [Inhibitor]: 0, 0.8% IN BASAL DIET BEGINNING POST CARCINOGEN TREATMENT AND CONTINUING FOR 40 WK (STUDY DURATION: 60 WK), Route [Inhibitor]: ORAL, Species: RAT, Strain/Sex: F344/MALE, Target Tissue: Type of Lesion: PANCREAS: ACINAR CELL NODULE, Dose [Carcinogen]: 50 MG/KG 1/2 WK FOR 20 WK TO RATS MAINTAINED ON ETHINYL ESTRADIOL CONTAINING DIET (0.75 PPM) FOR 1 WK CYCLED WITH ETHINY, Promoter: ETHINYL ESTRADIOL, 57-63-6) 4/10 (40%), 4/11 (36%), 10%, not significant; (Carcinogen: 3,2'-DIMETHYL-4-AMINOBIPHENYL, 13394-86-0, Dose [Inhibitor]: 0, 0.8% IN BASAL DIET BEGINNING POST CARCINOGEN TREATMENT AND CONTINUING FOR 40 WK (STUDY DURATION: 60 WK), Route [Inhibitor]: ORAL, Species: RAT, Strain/Sex: F344/MALE, Target Tissue: Type of Lesion: PREPUTIAL GLAND: ADENOMA AND CARCINOMA, Dose [Carcinogen]: 50 MG/KG 1/2 WK FOR 20 WK TO RATS MAINTAINED ON ETHINYL ESTRADIOL CONTAINING DIET (0.75 PPM) FOR 1 WK CYCLED WITH ETHINY, Promoter: ETHINYL ESTRADIOL, 57-63-6) 5/10 (50%), 4/11 (36%), 28%, not significant; (Carcinogen: 3,2'-DIMETHYL-4-AMINOBIPHENYL, 13394-86-0, Dose [Inhibitor]: 0, 0.8% IN BASAL DIET BEGINNING POST CARCINOGEN TREATMENT AND CONTINUING FOR 40 WK (STUDY DURATION: 60 WK), Route [Inhibitor]: ORAL, Species: RAT, Strain/Sex: F344/MALE, Target Tissue: Type of Lesion: PROSTATE: CARCINOMA, Dose [Carcinogen]: 50 MG/KG 1/2 WK FOR 20 WK TO RATS MAINTAINED ON ETHINYL ESTRADIOL CONTAINING DIET (0.75 PPM) FOR 1 WK CYCLED WITH ETHINY, Promoter: ETHINYL ESTRADOL, 57-63-6) 5/10 (50%), 3/11 (27%), 46%, not significant; (Carcinogen: 3,2'-DIMETHYL-4-AMINOBIPHENYL, 13394-86-0, Dose [Inhibitor]: 0, 0.8% IN BASAL DIET BEGINNING POST CARCINOGEN TREATMENT AND CONTINUING FOR 40 WK (STUDY DURATION: 60 WK), Route [Inhibitor]: ORAL, Species: RAT, Strain/Sex: F344/MALE, Target Tissue: Type of Lesion: SMALL INTESTINE: ADENOMA AND ADENOCARCINOMA, Dose [Carcinogen]: 50 MG/KG 1/2 WK FOR 20 WK TO RATS MAINTAINED ON ETHINYL ESTRADIOL CONTAINING DIET (0.75 PPM) FOR 1 WK CYCLED WITH ETHINY, Promoter: ETHINYL ESTRADIOL, 57-63-6) 2/10 (20%), 1/11 (9%), 55%, not significant. Moreover, the “tumour outcome (control, treated, inhibition, significance)” value reads like this: (Carcinogen: 3,2-DIMETHYL-4-AMINOBIPHENYL, 13394-86-0, Dose [Inhibitor]: 0, 0.8% IN BASAL DIET BEGINNING POST CARCINOGEN TREATMENT AND CONTINUING FOR 40 WK (STUDY DURATION: 60 WK), Route [Inhibitor]: ORAL, Species: RAT, Strain/Sex: F344/MALE, Target Tissue: Type of Lesion: ZYMBAL GLAND: ADENOMA AND CARCINOMA, Dose [Carcinogen]: 50 MG/KG 1/2 WK FOR 20 WK TO RATS MAINTAINED ON ETHINYL ESTRADIOL CONTAINING DIET (0.75 PPM) FOR 1 WK CYCLED WITH ETHINY, Promoter: ETHINYL ESTRADIOL, 57-63-6) 2/10 (20%), 0/11 (0%), 100%, not significant; (Carcinogen: 7,12-DIMETHYLBENZ[A]ANTHRACENE, 57-97-6, Dose [Inhibitor]: 0, 0.4% IN DIET FOR 35 WK BEGINNING POST CARCINOGEN DOSE (STUDY DURATION: 36 WK), Route [Inhibitor]: ORAL, Species: RAT, Strain/Sex: SPRAGUE-DAWLEY/FEMALE, Target Tissue: Type of Lesion: EAR DUCT: TUMOR, Dose [Carcinogen]: 50 MG/KG BW IN CORN OIL ONCE, Promoter: NONE USED) 5/15 (33%), 2/15 (13%), 61%, not significant; (Carcinogen: 7,12-DIMETHYLBENZ[A]ANTHRACENE, 57-97-6, Dose [Inhibitor]: 0, 0.4% IN DIET FOR 35 WK BEGINNING POST CARCINOGEN DOSE (STUDY DURATION: 36 WK), Route [Inhibitor]: ORAL, Species: RAT, Strain/Sex: SPRAGUE-DAWLEY/FEMALE, Target Tissue: Type of Lesion: MAMMARY GLAND: ADENOCARCINOMA, Dose [Carcinogen]: 50 MG/KG BW IN CORN OIL ONCE, Promoter: NONE USED) 14/15 (93%), 15/15 (100%), -8%, not significant; (Carcinogen: 7,12-DIMETHYLBENZ[A]ANTHRACENE, 57-97-6, Dose [Inhibitor]: 0, 0.4% IN DIET FOR 35 WK BEGINNING POST CARCINOGEN DOSE (STUDY DURATION: 36 WK), Route [Inhibitor]: ORAL, Species: RAT, Strain/Sex: SPRAGUE-DAWLEY/FEMALE, Target Tissue: Type of Lesion: MAMMARY GLAND: FIBROADENOMA, Dose [Carcinogen]: 50 MG/KG BW IN CORN OIL ONCE, Promoter: NONE USED) 3/15 (20%), 0/15 (0%), 100%, not significant; (Carcinogen: 7,12-DIMETHYLBENZ[A]ANTHRACENE, 57-97-6, Dose [Inhibitor]: 0, 12 MG 2/WK FOR 30 WK APPLIED 20 MIN PRIOR TO EACH PROMOTER DOSE (STUDY DURATION: 32 WK), Route [Inhibitor]: DERMAL, Species: MOUSE, Strain/Sex: SENCAR/FEMALE, Target Tissue: Type of Lesion: SKIN: PAPILLOMA, Dose [Carcinogen]: 25 NMOL ONCE, Promoter: M-CHLOROPEROXYBENZOIC ACID, 937-14-4) 39%, 0%, 100%, not calculated; (Carcinogen: BENZO[A]PYRENE, 50-32-8, Dose [Inhibitor]: 2 MG IN 0.1 ML ACETONE 3/WK ADMINISTERED SIMULTANEOUSLY WITH CARCINOGEN FOR DURATION OF STUDY (STUDY DURATION: 368 D), Route [Inhibitor]: DERMAL, Species: MOUSE, Strain/Sex: ICR/FEMALE, Target Tissue: Type of Lesion: SKIN: PAPILLOMA, Dose [Carcinogen]: 5 UG IN 0.1 ML ACETONE 3/WK FOR DURATION OF STUDY, Promoter: NONE USED) 14/50 (28%), 36/50 (72%), -157%, not calculated. Moreover, the “tumour outcome (control, treated, inhibition, significance)” value runs as follows: (Carcinogen: BENZO[A]PYRENE, 50-32-8, Dose [Inhibitor]: 2 MG IN 0.1 ML ACETONE 3/WK ADMINISTERED SIMULTANEOUSLY WITH CARCINOGEN FOR DURATION OF STUDY (STUDY DURATION: 368 D), Route [Inhibitor]: DERMAL, Species: MOUSE, Strain/Sex: ICR/FEMALE, Target Tissue: Type of Lesion: SKIN: SQUAMOUS CARCINOMA, Dose [Carcinogen]: 5 UG IN 0.1 ML ACETONE 3/WK FOR DURATION OF STUDY, Promoter: NONE USED) 10/50 (20%), 31/50 (62%), -210%, not calculated; (Carcinogen: N-BIS(2-HYDROXYPROPYL)NITROSAMINE, 53609-64-6, Dose [Inhibitor]: 0, 0.8% IN DIET FOR 30 WK BEGINNING POST CARCINOGEN TREATMENT (STUDY DURATION: 32 WK), Route [Inhibitor]: ORAL, Species: RAT, Strain/Sex: F344/MALE, Target Tissue: Type of Lesion: BLADDER: ADENOMA, Dose [Carcinogen]: 0.1% IN DRINKING WATER FOR 2 WK, Promoter: NONE USED) 5%, 0%, 100%, not calculated.
